Measured values: patent US9187468B2, “Topical ocular analgesic agents” (Novartis AG, priority 2013, dated 2015)
Each block holds one compound with its values, some of them ahead of it.

Legend:
[1] = tested on: formalin-induced blinking in rats; test: Formalin blink test (topical ocular analgesia); assay type: in vivo; details: rat
Description: Formalin was prepared at 0.1% final in 0.9% saline from a stock of 10% neutral buffered formalin (Sigma-Aldrich, St. Louis, Mo.). […] The structure of Compound A is.
All compounds were formulated in a 10% hydroxypropyl-β-cyclodextrin (HPβCD) 1×PBS vehicle. Compounds were prepared as 1% stock solutions in absolute ethanol. An appropriate amount of the stock solution was transferred to a glass vial from which the solvent was evaporated, then the compound was re-suspended in appropriate volumes of vehicle and ball-milled overnight at 4° C. All compounds were tested at 0.01%, 0.1%, 0.3%, and 1% w/v, unless otherwise noted. Alcaine® (Alcon Laboratories, Fort Worth, Tex.) was used as a reference compound.
Rats were dosed with 5 μL, of formalin vehicle (0.9% sterile saline) in OS eye. After a 5-second acclimation period, blinks were counted for one minute. Test compound or vehicle was dosed (5 μL) on OD eye. At 5 minutes after test compound treatment (unless otherwise noted), 0.1% formalin was dosed in the OD eye. Blinks were counted in the same manner as the OS eye.
The efficacy data for these compounds are plotted in FIGS. 1, 3, 4, and 5, with % inhibition of formalin-induced blink rate indicated above the bar for each tested concentration.

[2] = tested on: nylon fiber ocular surface touching-induced blinking in rats; test: Cochet-Bonnet esthesiometry test (anesthetic activity); assay type: in vivo; details: rat, topical ocular; for anesthesia in Cochet-Bonnet esthesiometry test: concentration range that afforded efficacious analgesia in the formalin blink test
Description: Cochet-Bonnet Esthesiometry Test
For the Cochet-Bonnet esthesiometry test that measures anesthetic activity, whiskers were trimmed from test animals or vehicle animals. OD eye of animal was dosed with 5 μL of test compound or vehicle. The animal was restrained in a clear plastic cone (DecapiCone®, Alcon Laboratories, Fort Worth, Tex.) which was trimmed as necessary to allow access to the OD eye. Five minutes after application of test compound, a Cochet-Bonnet esthesiometer, with a nylon monofilament diameter of 0.12 mm and length of 40 mm (0.8 g/mm^2), was applied perpendicularly to the central cornea of the OD eye 10 times. This test was performed three times on each animal within 2 minutes. Data were expressed as the mean number of blinks elicited from 10 stimuli.

[3] = tested on: rat spinal ligation model of neuropathic pain; details: orally dosed at 10 mg/kg, comparators at 3-10 times higher doses; cited from earlier work

anesthesia in Cochet-Bonnet esthesiometry test [2]: did not elicit observable anesthesia
SMILES: CC(=O)Nc1cccc(Nc2ncnc(N3CCC(OCc4ccc(OC(F)(F)F)cc4)CC3)n2)c1C [Compound 1]
maximum efficacy as topical ocular analgesic compared to Compounds A and B ([1]; FIG. 1 vs FIGS. 3 and 4): more efficacious
potency as topical ocular analgesic compared to Compounds A and B ([1]; FIG. 1 vs FIGS. 3 and 4): significantly more potent
% reduction of formalin-induced blink rate vs vehicle ([1]; drug concentrations ≧0.05% w/v (tested 0.01%-0.3% w/v)): > 50%
anesthetic effect (touch-induced blinking) compared to vehicle ([2]; drug concentrations up to 0.3% w/v (0.05-0.3%)): did not elicit a statistically significant anesthetic effect

SMILES: CCCCCN1C(=O)C2(COc3cc4c(cc32)OCO4)c2ccccc21 (stereo not drawn) [Compound A, 1′-pentyl-6H-spiro[[1,3]dioxolo[4,5-f]benzofuran-7,3′-indolin]-2′-one]
% reduction of formalin-induced blink rate ([1]; 0.1% w/v dose): 27%

SMILES: NC(=O)c1nc(-c2cccc(-c3ccccc3OC(F)(F)F)c2)cs1 [Compound B, 4-(2′-(trifluoromethoxy)-[1,1′-biphenyl]-3-yl)thiazole-2-carboxamide]
% reduction of formalin-induced blink rate ([1]; 0.01% w/v dose): no effect
% reduction of formalin-induced blink rate ([1]; 0.1% w/v dose): no effect
% reduction of formalin-induced blink rate ([1]; 0.3% w/v dose): ~40%
% reduction of formalin-induced blink rate ([1]; 1% w/v dose): ~40%
therapeutic efficacy vs mexiletene, lamotrigene and carbamazepine [3]: significantly more therapeutically efficacious

anesthetic effect (touch-induced blinking) ([2]; 0.1% and 0.2% doses): elicited significant anesthesia
anesthesia in Cochet-Bonnet esthesiometry test [2]: profound anesthesia
SMILES: Fc1cccc(Cn2ccc3c(OC4CCN(Cc5cscn5)CC4)ncnc32)c1F [Compound C]
dose dependence of analgesic efficacy ([1]; 0.01-0.2% w/v): dose-related increase in efficacy
maximum efficacy (% inhibition of formalin-induced blink rate) ([1]; top tested dose of 0.01-0.2% w/v range): 61%
